Laboratory results reported in US12629374B2, “Antimalarial agents” (Merck Sharp & Dohme LLC, priority 2020, dated 2026).
Where a name gives a salt, the structure may show the parent alone.

Tested on: ring stage parasites
Test: Parasite growth potency assay, 72 hours, LDH readout
Format: cell-based
Conditions: 72 h, parasite growth measured by LDH assay after 72 hours at 37° C.; 0.7% rings, 2% haematocrit; read-out: EC50
Method: The parasite stock was maintained at 4% haematocrit in RPMI-Hepes media buffered with sodium bicarbonate and supplemented with 5% heat inactivated human serum and 0.5% albumax.
On the day of assay set up, a blood smear of the parasite culture was Giemsa stained and counted. The parasitemia was adjusted to 0.7% rings and the haematocrit was diluted to 2% in RPMI-Hepes media buffered with sodium bicarbonate and supplemented with 5% heat inactivated human serum and 0.5% albumax. 30 ul of diluted parasites are then added into 10 ul of media+compound in pre-prepared Greiner TC assay plates. Parasite assay plates were placed in gassed humidified boxes in single layer and allowed to incubate at 37° C. for 72 hours. After 72 hours growth, assay plates are sealed with parafilm and frozen flat, in single file at −80° C. overnight. On the following day, assay plates are allowed to thaw at room temperature for 4 hours to which an LDH assay is performed to measure parasite growth.

Compound | EC50 [nM]
CCC1(CC)CC(=O)N([C@H](c2cccc(C(=O)N[C@H]3CCOc4ccccc43)c2)c2cncs2)C(=N)N1 (single isomer, unassigned) [Example 85B, trifluoroacetate] | 2.1
CCC1(CC)CC(=O)N([C@@H](COCCOC)c2cccc(C(=O)N[C@H]3CC(C)(C)Oc4ccccc43)c2)C(=N)N1 (single isomer, unassigned) [Example 112B, trifluoroacetate] | 59.6
CCC1(CC)CC(=O)N(Cc2cccc(C(=O)N[C@@H]3c4ccccc4OCC3O)c2)C(=N)N1 (single isomer, unassigned) [Example 126A, 3-[(4,4-diethyl-2-imino-6-oxo-hexahydropyrimidin-1-yl)methyl]-N-(3-hydroxychroman-4-yl)benzamide] | 19.4
CCC[C@H](c1cccc(C(=O)N[C@@H]2c3ccccc3OCC2O)c1)N1C(=N)NC(CC)(CC)CC1=O (single isomer, unassigned) [Example 127B] | 1.2
CCC1(CC)CC(=O)N([C@H](CCOC)c2cccc(C(=O)NC3c4ccccc4CC3(C)O)c2)C(=N)N1 (single isomer, unassigned) [Example 142B, 3-[1-(4,4-diethyl-2-imino-6-oxo-hexahydropyrimidin-1-yl)-3-methoxy-propyl]-N-(2-hydroxy-2-methyl-indan-1-yl)benzamide] | 1.4
CCC1(CC)CC(=O)N([C@H](CCOC)c2cc(F)cc(C(=O)N[C@H]3c4ccccc4CC3(C)O)c2)C(=N)N1 (single isomer, unassigned) [Example 144A, 3-[1-(4,4-diethyl-2-imino-6-oxo-hexahydropyrimidin-1-yl)-3-methoxy-propyl]-5-fluoro-N-(2-hydroxy-2-methyl-indan-1-yl)benzamide] | 81.6

Same assay, conditions: parasite growth measured by LDH assay after 72 hours at 37° C.; 0.7% rings, 2% haematocrit; read-out: EC50

Compound | EC50 [nM]
CCC1(CC)CC(=O)N(C(c2cncnc2)c2cccc(C(=O)NC3CC(C)(C)Oc4ccccc43)c2)C(=N)N1 (single isomer, unassigned) [Example 92A, 3-[(4,4-diethyl-2-imino-6-oxo-hexahydropyrimidin-1-yl)-pyrimidin-5-yl-methyl]-N-(2,2-dimethylchroman-4-yl)benzamide] | 25.5
CCC1(CC)CC(=O)N(C(c2cncnc2)c2cccc(C(=O)NC3CC(C)(C)Oc4ccccc43)c2)C(=N)N1 (single isomer, unassigned) [Example 92C, 3-[(4,4-diethyl-2-imino-6-oxo-hexahydropyrimidin-1-yl)-pyrimidin-5-yl-methyl]-N-(2,2-dimethylchroman-4-yl)benzamide] | 2.8
CCC12CCCCCCC3COc4ccccc4C3NC(=O)c3cccc(c3)CN(C(=N)N1)C(=O)C2 (single isomer, unassigned) [Example 120A, (26-ethyl-8,29-dioxo-17-oxa-1,9,27-triazapentacyclo[24.2.2.13,7.010,19. 011,16]hentriaconta-3,5,7(31),11(16),12,14-hexaen-28-ylidene)ammonium; 2,2,2-trifluoroacetate] | 70.3
CCC12CCCCCCC3COc4ccccc4C3NC(=O)c3cccc(c3)CN(C(=N)N1)C(=O)C2 (single isomer, unassigned) [Example 120B, (26-ethyl-8,29-dioxo-17-oxa-1,9,27-triazapentacyclo[24.2.2.13,7.010,19. 011,16]hentriaconta-3,5,7(31),11(16),12,14-hexaen-28-ylidene)ammonium; 2,2,2-trifluoroacetate] | 35.5
CCC12CCCCCCC3COc4ccccc4C3NC(=O)c3cccc(c3)CN(C(=N)N1)C(=O)C2 (single isomer, unassigned) [Example 120C, (26-ethyl-8,29-dioxo-17-oxa-1,9,27-triazapentacyclo[24.2.2.13,7.010,19. 011,16]hentriaconta-3,5,7(31),11(16),12,14-hexaen-28-ylidene)ammonium; 2,2,2-trifluoroacetate] | 21.9
CCC12CCCCCCC3COc4ccccc4C3NC(=O)c3cccc(c3)CN(C(=N)N1)C(=O)C2 (single isomer, unassigned) [Example 120D, (26-ethyl-8,29-dioxo-17-oxa-1,9,27-triazapentacyclo[24.2.2.13,7.010,19. 011,16]hentriaconta-3,5,7(31),11(16),12,14-hexaen-28-ylidene)ammonium; 2,2,2-trifluoroacetate] | 27.6
CCC[C@H](c1cccc(C(=O)N[C@H]2c3ccccc3CC2(C)O)c1)N1C(=N)NC(CC)(CC)CC1=O (single isomer, unassigned) [Example 122B] | 17.7
CCC[C@H](c1cccc(C(=O)N[C@H]2c3ccccc3CC2(C)O)c1)N1C(=N)NC(CC)(CC)CC1=O (single isomer, unassigned) [Example 122C] | 57.3
CCC1(CC)CC(=O)N([C@H](CCOC)c2cc(F)cc(C(=O)N[C@H]3c4ccccc4CC3(C)O)c2)C(=N)N1 (single isomer, unassigned) [Example 144C, 3-[1-(4,4-diethyl-2-imino-6-oxo-hexahydropyrimidin-1-yl)-3-methoxy-propyl]-5-fluoro-N-(2-hydroxy-2-methyl-indan-1-yl)benzamide] | 99.5
CCC1(CC)CC(=O)N([C@H](CCOC)c2cccc(C(=O)N[C@@H]3c4ccccc4CC3(O)C(F)(F)F)c2)C(=N)N1 (single isomer, unassigned) [Example 204A] | 21
CCC1(CC)CC(=O)N([C@H](CCOC)c2cccc(C(=O)N[C@@H]3c4ccccc4CC3(O)C(F)(F)F)c2)C(=N)N1 (single isomer, unassigned) [Example 204B] | 8.5
CC[C@]1(C)CC(=O)N([C@H](CCOC)c2cccc(C(=O)NC3c4ccccc4OC(C)(C)C3(C)O)c2)C(=N)N1 (single isomer, unassigned) [Example 234A] | 0.43
CC[C@]1(C)CC(=O)N([C@H](CCOC)c2cccc(C(=O)NC3c4ccccc4OC(C)(C)C3(C)O)c2)C(=N)N1 (single isomer, unassigned) [Example 234B] | 74.8
CCC1(CC)CC(=O)N(C(CC(O)C(F)(F)F)c2cccc(C(=O)N[C@@H]3c4ccccc4C[C@H]3O)c2)C(=N)N1 (single isomer, unassigned) [Example 236A] | 55
CCC1(CC)CC(=O)N(C(CC(O)C(F)(F)F)c2cccc(C(=O)N[C@@H]3c4ccccc4C[C@H]3O)c2)C(=N)N1 (single isomer, unassigned) [Example 236B] | 0.96
CCC1(CC)CC(=O)N(C(CC(O)C(F)(F)F)c2cccc(C(=O)N[C@@H]3c4ccccc4C[C@H]3O)c2)C(=N)N1 (single isomer, unassigned) [Example 236C] | 2.3
CC[C@]1(C)CC(=O)N([C@H](CCOC)c2cccc(C(=O)NC3c4cc(F)ccc4OC(C)(C)C3(C)O)c2)C(=N)N1 (single isomer, unassigned) [Example 237A] | 54.6
CC[C@]1(C)CC(=O)N([C@H](CCOC)c2cccc(C(=O)NC3c4cc(F)ccc4OC(C)(C)C3(C)O)c2)C(=N)N1 (single isomer, unassigned) [Example 237B] | 0.19
CCC1(CC)CC(=O)N(C(CC(OC)C(F)(F)F)c2cccc(C(=O)N[C@@H]3c4ccccc4C[C@H]3O)c2)C(=N)N1 (single isomer, unassigned) [Example 238A] | 1.94
CCC1(CC)CC(=O)N(C(CC(OC)C(F)(F)F)c2cccc(C(=O)N[C@@H]3c4ccccc4C[C@H]3O)c2)C(=N)N1 (single isomer, unassigned) [Example 238B] | 67.5
CCC1(CC)CC(=O)N(C(CC(OC)C(F)(F)F)c2cccc(C(=O)N[C@@H]3c4ccccc4C[C@H]3O)c2)C(=N)N1 (single isomer, unassigned) [Example 238C] | 2.32
CCC1(CC)CC(=O)N(C(CC(OC)C(F)(F)F)c2cccc(C(=O)N[C@@H]3c4ccccc4C[C@H]3O)c2)C(=N)N1 (single isomer, unassigned) [Example 238D] | 2.25

Same assay, conditions: parasite growth measured by LDH assay after 72 hours at 37° C.; 0.7% rings, 2% haematocrit; trifluoroacetate; read-out: EC50

Compound | EC50 [nM]
CCC1(CC)CC(=O)N(Cc2cccc(C(=O)NC3CC(C)(C)Oc4ccccc43)c2)C(=N)N1 (single isomer, unassigned) [Example 51A, [1-[[3-[(2,2-dimethylchroman-4-yl)carbamoyl]phenyl]methyl]-4,4-diethyl-6-oxo-hexahydropyrimidin-2-ylidene]ammonium; 2,2,2-trifluoroacetate] | 91.9
CCC1(CC)CC(=O)N(Cc2cccc(C(=O)NC3CC(C)(C)Oc4ccccc43)c2)C(=N)N1 (single isomer, unassigned) [Example 51B, [1-[[3-[(2,2-dimethylchroman-4-yl)carbamoyl]phenyl]methyl]-4,4-diethyl-6-oxo-hexahydropyrimidin-2-ylidene]ammonium; 2,2,2-trifluoroacetate] | 0.5
CCC1(CC)CC(=O)N([C@H](CCOC)c2cc(F)cc(C(=O)NC3c4ccccc4OC3(C)COC)c2)C(=N)N1 (single isomer, unassigned) [Example 176A, trifluoroacetate] | 21.8
CCC1(CC)CC(=O)N([C@H](CCOC)c2cc(F)cc(C(=O)NC3c4ccccc4OC3(C)COC)c2)C(=N)N1 (single isomer, unassigned) [Example 176C, trifluoroacetate] | 98.9
CCC1(CC)CC(=O)N([C@H](CCOC)c2cccc(C(=O)N[C@@H]3c4ccccc4OC3(C)CO)c2)C(=N)N1 (single isomer, unassigned) [Example 180A, trifluoroacetate] | 1.5
CCC1(CC)CC(=O)N([C@H](CCOC)c2cccc(C(=O)N[C@@H]3c4ccccc4OC3(C)CO)c2)C(=N)N1 (single isomer, unassigned) [Example 180B, trifluoroacetate] | 15.3
